Patent US20160199406A1, “NON-[…] IN COMBINATION WITH LIQUID […] FOR ORGAN PROTECTION” (priority 2013, published 2016)

Tests used:
[1] = normobaric conditions, cited from earlier work
[2] = test system: injured retinal ganglion cells; experiment: Annexin V-PeCy7 flow cytometric evaluation of early apoptosis in injured retinal ganglion cells after unilateral optic nerve axotomy; format: in vivo, B6.Cg-Tg(Thy1-YFP)16Jrs/J mice
Source text: B6.Cg-Tg(Thy1-YFP)16Jrs/J mice: Thy1-YFP mice were exposed to a vapor anesthetic agent (Isofluorane or Sevofluorane), in an anesthetic induction chamber. Animals were temperature probed, sterile eye lubricant was applied to prevent corneal damage, and an incision was made adjacent to the orbital ridge. The left orbit was exposed, and the lacrimal gland gently resected and covered with saline soaked gauze. […] Using microscissors, the dura was resected, and the optic nerve was transected approximately 0.5 mm from the posterior aspect of the eye bulb. Preservation of blood supply was evaluated through the dissecting microscope focused through a dilated pupil and a coverslip. The skin was closed with suture clips, analgesics (buprenorphine in saline) administered, and the mouse was transferred to an Argon (70%)/Oxygen (30%) perfused air chamber on a warming mat. […] Control mice were exposed to normal atmospheric conditions post-injury (See FIG. 1). Internal surgical controls were the uninjured retina of the contralateral eye.
Retinal Dissection, dissociation, and staining of cells: Mice were lightly anesthetized with Isofluorane and killed via cervical dislocation. Eyes were rapidly removed and placed in ice cold Hank's Balanced Salt Solution (HBSS). A single puncture to the conjunctiva was made, and corneas removed by microdissection. The ciliary epithelium and lens were then resected, and vitreous humor was visualized using triamcinolone acetonide solution to aid in removal by aspiration and microdissection. Free floating retinas were then transferred to fresh HBSS on ice, then transferred to 1 ml of enzyme solution containing Trypsin (MACS—Miltenyi Biotec). Following a 15 minute incubation at 37 degrees C. with periodic agitation, retinas were dissociated with fire polished pipettes and centrifuged. Pellets were washed in Annexin V binding buffer, and centrifuged. Pellets were the re-dissociated in DNAse-containing binding buffer, and stained for Annexin V-PeCy7 probe. Cells were washed, cell strained (40 um), and analyzed using a BD FacsAria III flow cytometer.
Flow cytometry and data analysis: Compensation and gating was established using unstained, YFP-only, Annexin V-only, and double-labeled cell samples. Dead cell assays (not shown) were also performed using propidium iodide and 7-AAD DNA intercalating dyes. Forward and side scatter gating were used to exclude debris, and YFP-positive cells were gated and used as the reference population. Quadrant analysis was used to identify and quantify Annexin V labeling within YFP expressing cells across groups. A within-subjects comparison was performed by comparing injured and uninjured retinas from the same animal. Difference scores (uninjured—injured Annexin V cell counts) were produced in order to normalize Annexin V background labeling in right eyes. All data are represented as means +/−1.0 standard error of the mean.

[Xe] [Xenon, xenon, reference compound]
concentration with capacity to provide anesthesia [1]: 71%

[Ar] [argon]
anesthetic effects ([1]; high inspiratory concentrations): does not provide anesthetic effects | difference score (uninjured - injured Annexin V cell counts within YFP-positive population) ([2]; 24 h post-injury, Argon (70%)/Oxygen (30%) chamber after surgery under Isofluorane or Sevofluorane, buprenorphine): positive difference score | Annexin V binding in injured retinas ([2]; 48 h post-injury, Argon (70%)/Oxygen (30%) chamber post-injury): strong resistance to Annexin V binding | neuroprotection ([2]; 72 hours post-injury): retained at 72 hours | neuroprotective effect in combination with liquid anesthetics ([2]; overall conclusion from the data): provides a neuroprotective effect within the central nervous system | time of peak of neuroprotection effect size ([2]; post-injury, Argon (70%)/Oxygen (30%)): around 48 h
